Assay results taken from patent US11033549B2, “Use of heterocyclic compounds in the treatment of pigmented skin” (ATIR Holding S.A., priority 2017, dated 2021).

Test system: skin
Assay: Effect of topical application of R-55 on skin of female volunteers
Assay type: in vivo, human
Details: two middle-aged Caucasian female volunteers, daily topical application, after about one month
Protocol: A formulation for topical administration of R-55 (2-((4-(3-hydroxyphenyl)piperazin-1-yl)methyl)quinazolin-4-one) was prepared, comprising 10 mg/ml R-55.
A lipid-based phase was formed which consisted primarily of propylene glycol (a solvent of R-55 and penetration enhancer), along with Gelucire® 44/14 lauroyl macrogolglycerides (a solubilizer of R-55), Gelucire® 50/13 stearoyl macrogolglycerides (a sustained release agent), phosphatidyl choline (a surfactant), Labrasol® caprylocaproyl macrogolglycerides (a co-surfactant and penetration enhancer), Lauroglycol™ 90 (a solubilizer of R-55, co-surfactant and penetration enhancer), and vitamin E TPGS (a stabilizer). The ingredients were mixed by stirring at a temperature in a range of from 40° C. to 60° C. until the phosphatidyl choline and R-55 were completely dissolved, as indicated by obtaining a clear solution.
An aqueous solution of a carbomer (Carbopol® Ultrez 10) was added to the lipid-based phase with R-55 to obtain 100 grams of a suspension, which was stirred continuously at room temperature. A gel-like water-in-oil emulsion was formed, with relatively round aqueous droplets dispersed in a lipophilic phase, and the emulsion was stable for at least 2 weeks at room temperature. […]

Structure (SMILES): O=c1nc(CN2CCN(c3cccc(O)c3)CC2)[nH]c2ccccc12 [R-55, 2-((4-(3-hydroxyphenyl)piperazin-1-yl)methyl)quinazolin-4-one]
- skin pigmentation (10 mg/ml R-55, face and behind the ear): noticeably less pigmented
- skin appearance (10 mg/ml R-55): overall fresher, younger appearance
